{"source": "patent US20210023113A1", "about": "“CONJUGATE OF CYTOTOXIC DRUG AND PRODRUG FORM OF SAID CONJUGATE” (priority 2018, published 2021)", "key": {"[1]": {"molecular_target": "T1, β-glucuronidase from Escherichia coli (Escherichia coli, UniProt P05804)", "T1 sequence (P05804 whole entry)": "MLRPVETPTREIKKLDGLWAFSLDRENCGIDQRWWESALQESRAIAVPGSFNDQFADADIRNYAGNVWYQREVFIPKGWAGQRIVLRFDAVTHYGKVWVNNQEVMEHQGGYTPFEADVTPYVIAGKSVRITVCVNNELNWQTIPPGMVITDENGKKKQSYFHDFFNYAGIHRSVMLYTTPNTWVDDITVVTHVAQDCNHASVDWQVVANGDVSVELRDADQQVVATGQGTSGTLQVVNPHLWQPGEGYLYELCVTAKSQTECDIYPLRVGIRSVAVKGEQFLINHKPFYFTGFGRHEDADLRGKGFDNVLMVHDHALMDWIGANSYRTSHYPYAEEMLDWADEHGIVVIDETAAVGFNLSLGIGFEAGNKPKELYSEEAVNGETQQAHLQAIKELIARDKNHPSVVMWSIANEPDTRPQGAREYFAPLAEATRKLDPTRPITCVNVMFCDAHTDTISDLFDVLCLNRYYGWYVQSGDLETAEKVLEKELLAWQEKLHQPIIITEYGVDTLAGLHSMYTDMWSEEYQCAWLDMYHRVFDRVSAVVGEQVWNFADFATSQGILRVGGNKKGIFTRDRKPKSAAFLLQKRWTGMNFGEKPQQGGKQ", "experiment": "Kinetics of β-glucuronidase-induced release of a cytotoxic drug (general procedure, plasma/phosphate buffer)", "type": "biochemical", "settings": "after 40 minutes of incubation with β-glucuronidase, 50/50 human plasma and potassium phosphate buffer pH 7.0, 25° C.", "description": "General Procedure for the Measurement of the Kinetics of β-glucuronidase-Induced Release of a Cytotoxic Drug • Sample solution of R isomers was prepared by adding 5 μL of compounds R6, R7 or R8 (10 mM in DMSO) to 500 μL of a 50/50 mixture of human plasma and potassium phosphate buffer (0.1M, pH 7.0) and incubating at 37° C. for 20 min. • Sample solution of S isomers was prepared by adding 5 μL of compounds S6, S7 or S8 (10 mM in DMSO) to 500 μL of a 50/50 mixture of human plasma and potassium phosphate buffer (0.1M, pH 7.0) and incubating at 37° C. for 20 min. • Quenching solution (Q) was prepared by adding 50 μL of 1 M aqueous HCl to 1.5 mL of acetonitrile. • β-glucuronidase solution (Glu) was prepared by adding 20 μL of aqueous glycerol solution of β-glucuronidase from Escherichia coli (6.5 mg/mL) to 180 μL of H2O. • Reference solution (Ref) was prepared by adding 5 μL of a corresponding free cytotoxic drug (10 mM in DMSO) to 500 μL of a 50/50 mixture of human plasma and potassium phosphate buffer (0.1M, pH 7.0) and incubating at 37° C. for 20 min.\nTo each sample and reference solution was added 10 uL of Glu. The resulting mixtures were incubated at 25° C. 45 μL aliquots of each solution were quenched with 155 μL of Q at the precise time points indicated on the graphs (FIGS. 3-5). Quenched aliquots were centrifuged at 15000 g for 5 min and the supernatant was analyzed by LCMS (Method 3) with Selected ion recording set to [M+H]^+ where M corresponds to molecular mass of the free cytotoxic agent.\nThe amount of released cytotoxic agent at each time point was calculated as (sample peak area)/(reference peak area)×100%."}, "[2]": {"molecular_target": "T1, β-glucuronidase from Escherichia coli", "experiment": "Kinetics of β-glucuronidase-induced release of MMAE in human plasma", "type": "biochemical", "settings": "after 7 minutes of incubation with β-glucuronidase, 37° C.", "description": "Measurement of the Kinetics of β-glucuronidase-Induced Release of MMAE • Sample solution of R isomer was prepared by adding 10 μL of R5 (10 mM in DMSO) to 990 μL of human plasma and incubating at 37° C. for 20 min. • Sample solution of S isomer was prepared by adding 10 μL of S5 (10 mM in DMSO) to 990 μL of human plasma and incubating at 37° C. for 20 min. • Quenching solution (Q) was prepared by adding 50 μL of 1 M aqueous HCl to 1.5 mL of acetonitrile. • β-glucuronidase solution (Glu) was prepared by adding 20 μL of aqueous glycerol solution of β-glucuronidase from Escherichia coli (6.5 mg/mL) to 180 μL of H2O. • Reference solution (Ref) was prepared by adding 10 μL of MMAE (10 mM in DMSO) to 990 μL of human plasma and incubating at 37° C. for 20 min.\nTo 1 mL of each isomer and reference solution was added 40.9 uL of Glu. The resulting mixtures were incubated at 37° C. 45 μL aliquots of each solution were quenched with 155 μL of Q at the following time points: 1 min, 2 min, 3 min, 4 min, 5 min, 6 min and 7 min. Quenched aliquots were centrifuged at 15000 g for 5 min and the supernatant was analyzed by LCMS (Method 3) with Selected ion recording set to 719 Da (corresponding to [MMAE+H]^+). The amount of released MMAE at each time point was calculated as (sample peak area)/(reference peak area)×100% (FIG. 2)."}, "[3]": {"molecular_target": "T2, serum albumin (Homo sapiens, UniProt P02768)", "T2 construct": "adding 10 μL of R5 (10 mM in DMSO) to 990 μL of human plasma and incubating at 37° C; from tissue; host or cells: human plasma", "T2 sequence (P02768 25-609)": "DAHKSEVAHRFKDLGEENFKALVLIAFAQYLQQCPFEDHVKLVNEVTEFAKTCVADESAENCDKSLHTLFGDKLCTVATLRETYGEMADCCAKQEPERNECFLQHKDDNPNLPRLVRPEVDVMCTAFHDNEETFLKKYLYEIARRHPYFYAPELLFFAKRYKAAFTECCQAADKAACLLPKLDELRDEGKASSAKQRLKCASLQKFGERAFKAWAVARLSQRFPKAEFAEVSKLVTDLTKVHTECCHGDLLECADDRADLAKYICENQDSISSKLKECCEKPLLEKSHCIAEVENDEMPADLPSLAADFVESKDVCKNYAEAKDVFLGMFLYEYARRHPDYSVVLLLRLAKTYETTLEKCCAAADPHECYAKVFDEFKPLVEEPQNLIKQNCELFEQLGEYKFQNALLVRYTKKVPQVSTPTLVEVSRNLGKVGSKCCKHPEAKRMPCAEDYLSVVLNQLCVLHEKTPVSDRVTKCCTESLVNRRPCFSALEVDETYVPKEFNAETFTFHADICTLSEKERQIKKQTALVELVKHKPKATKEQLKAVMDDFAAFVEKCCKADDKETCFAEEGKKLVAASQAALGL", "experiment": "Plasma-binding kinetics of R5 and S5", "type": "in vitro ADME", "settings": "37° C.", "description": "Plasma-Binding Kinetics of R5 and S5 • Quenching solution (Q) was prepared by adding 50 μL of 1 M aqueous HCl to 1.5 mL of acetonitrile. • Sample solution R-Alb was prepared by adding 10 μL of R5 (10 mM in DMSO) to 990 μL of human plasma and incubating at 37° C. • Sample solution S-Alb was prepared by adding 10 μL of S5 (10 mM in DMSO) to 990 μL of human plasma and incubating at 37° C. • 45 μL aliquots of each sample solution were added to 155 μL of the quenching solution at the following time-points: 0 min, 1 min, 2 min, 3 min, 4 min, 5 min, 6 min, 7 min. • Quenched aliquots were centrifuged at 15000 g for 5 min and the supernatant was analyzed by LCMS (Method 3) with Selected ion recording set to 924 Da (corresponding to [R5+2H]^2+/2 and [S5+2H]^2+/2). Peak areas of the aliquots quenched at 0 min were considered as reference peak areas. • The % remaining free drug at each time point was calculated as (sample peak area)/(reference peak area)×100%."}, "[4]": {"experiment": "Stability of R5 and S5 in aqueous buffer (PBS)", "type": "physicochemical", "settings": "phosphate buffered saline pH 6.0, any time point", "description": "Measurement of the Stability of R5 and S5 in Aqueous Buffer at pH 7.4 • Sample solution R5-PBS was prepared by adding 20 μL of R5 (10 mM in DMSO) to 180 μL of phosphate buffered saline (pH 7.4). • Sample solution S5-PBS was prepared by adding 20 μL of S5 (10 mM in DMSO) to 180 μL of phosphate buffered saline (pH 7.4). • Samples were incubated at 25° C. and analyzed by LCMS (Method 3) with Selected ion recording set to 924 Da (corresponding to [R5+2H]^2+/2 and [S5+2H]^2+/2) and to 933 Da (the main impurity being formed corresponding to hydrolyzed products [R5+H2O+2H]^2+/2 and [S5+H2O+2H]^2+/2). Samples were injected at the following time points: 0 min, 99 min, 195 min, 291 min, 387 min, 543 min, 699 min, 855 min, 980 min. Peak areas of the samples injected at 0 min were considered as reference peak areas. • % Peak Area was calculated as (924 Da peak area)/((924 Da peak area)+(933 Da peak area))×100%.\nThe same experiment was carried out in phosphate buffered saline at pH 6.0."}}, "data": [{"smiles": "COc1cccc2c1C(=O)c1c(O)c3c(c(O)c1C2=O)C[C@@](O)(C(=O)CO)C[C@@H]3O[C@H]1C[C@H](NC(=O)O[C@@H](Cc2cn(CCOCCOCCOCCOCCOCCOCCOCCOCCOCCOCCNC(=O)CCCCCN3C(=O)C=CC3=O)nn2)c2ccc(O[C@H]3O[C@@H](C(=O)O)[C@H](O)[C@@H](O)[C@@H]3O)c([N+](=O)[O-])c2)[C@H](O)[C@H](C)O1", "note": "[S8]", "values": [{"measurement": "Doxorubicin released from plasma-bound compound", "setting": "[1]", "value": 80, "unit": "%"}]}, {"smiles": "CCc1c2c(nc3ccc(OCc4ccc(NC(=O)O[C@@H](Cc5cn(CCOCCOCCOCCOCCOCCOCCOCCOCCOCCOCCNC(=O)CCCCCN6C(=O)C=CC6=O)nn5)c5ccc(O[C@H]6O[C@@H](C(=O)O)[C@H](O)[C@@H](O)[C@@H]6O)c([N+](=O)[O-])c5)cc4)cc13)-c1cc3c(c(=O)n1C2)COC(=O)[C@]3(O)CC", "note": "[S7]", "values": [{"measurement": "SN-38 released from plasma-bound compound", "setting": "[1]", "value": 18, "unit": "%"}]}, {"smiles": "CC[C@H](C)[C@@H]([C@@H](CC(=O)N1CCC[C@H]1[C@H](OC)[C@@H](C)C(=O)N[C@H](C)[C@@H](O)c1ccccc1)OC)N(C)C(=O)[C@@H](NC(=O)[C@H](C(C)C)N(C)C(=O)O[C@@H](Cc1cn(CCOCCOCCOCCOCCOCCOCCOCCOCCOCCOCCNC(=O)CCCCCN2C(=O)C=CC2=O)nn1)c1ccc(O[C@@H]2O[C@H](C(=O)O)[C@@H](O)[C@H](O)[C@H]2O)c([N+](=O)[O-])c1)C(C)C", "note": "[S5]", "values": [{"measurement": "MMAE released from plasma-bound compound", "setting": "[2]", "value": 12, "unit": "%"}, {"measurement": "compound bound to serum albumin", "setting": "[3]; after 2 minutes of incubation", "value": "about 90%"}, {"measurement": "conversion (binding to serum albumin)", "setting": "[3]; after 4 minutes", "value": "total conversion"}, {"measurement": "degradation of compound", "setting": "[4]", "value": "No degradation"}]}, {"smiles": "CC[C@H](C)[C@@H]([C@@H](CC(=O)N1CCC[C@H]1[C@H](OC)[C@@H](C)C(=O)N[C@@H](Cc1ccccc1)C(=O)O)OC)N(C)C(=O)[C@@H](NC(=O)[C@H](C(C)C)N(C)C(=O)O[C@@H](Cc1cn(CCOCCOCCOCCOCCOCCOCCOCCOCCOCCOCCNC(=O)CCCCCN2C(=O)C=CC2=O)nn1)c1ccc(O[C@@H]2O[C@H](C(=O)O)[C@@H](O)[C@H](O)[C@H]2O)c([N+](=O)[O-])c1)C(C)C", "note": "[S6]", "values": [{"measurement": "MMAF released from plasma-bound compound", "setting": "[1]", "value": 57, "unit": "%"}]}]}
